From patent US11583529B2, “Treatment of inflammatory disorders” (Aldeyra Therapeutics, Inc., priority 2017, dated 2023)
“Also recorded” adds a separate entry of the source.

What was measured:
[1] = system: rat model of diabetic macular edema (DME); experiment: Rat model of diabetic macular edema (STZ-induced diabetes), intravitreal treatment; type: in vivo, male brown Norway rats
Protocol: To assess the effect of Compound I-22 in a rat model of diabetic macular edema (DME), Type 1 diabetes was induced in male brown Norway rats by intraperitoneal administration of streptozotocin (STZ; 55 mg/kg). Forty days after STZ administration, animals were assessed for the presence of diabetes by testing blood glucose levels.
Compound I-22 was supplied as a preformulated sterile solution at 5 mg/mL. The vehicle was 25% hydroxypropyl-β-cyclodextrin solution (333 mOsm/kg) in a sodium phosphate buffer, pH 7.2. Animals with diabetes were assigned to groups of ten, to receive either vehicle (HPβCD) or compound I-22.
The study consisted of three groups of male brown Norway rats. Diabetes and diabetic retinopathy were induced in Groups 2 and 3 by intraperitoneal injection of streptozotocin (STZ) on Day 0; Group 1 animals served as non-STZ (non-diabetic) untreated controls. Six and eight weeks after STZ injection, Vehicle (3.5 μL) and Compound I-22 (17.5 μg per eye; 3.5 μL) were administered intravitreally to both eyes of rats in Group 2 and Group 3, respectively. Clinical observations (daily), body weights (weekly), qualitative food consumption, and blood glucose levels (weekly) were assessed. To evaluate retinopathy, electroretinography (ERG) was conducted at Weeks 8, 9 and 10; and optical coherence tomography (OCT) and fundus fluorescein angiography (FFA) were performed pre-dose at Week 6, and at Weeks 8, 9, and 10. Animals were euthanized at 10 weeks post-STZ administration and eyes were collected for histopathological evaluation.
Type 1 diabetes was induced by intraperitoneal administration of 55 mg/kg STZ after an overnight fast. The STZ dosing solution (27.5 mg/mL) was prepared immediately prior to injection by dissolving STZ (Sigma-Aldrich Corp, St. Louis, Mo., Catalog S0130) in a citrate solution (see below) followed by filtration of the STZ solution using a 0.2 μm syringe filter (Pall Life Sciences, Ann Arbor, Mich., Catalog PN4192). The STZ dosing solution was used for injection within approximately 30 minutes after reconstitution.
Electroretinography (ERG) was performed on Days 55, 62 and 69. After an overnight dark adaption, both eyes were dilated with 1% tropicamide. Animals were anesthetized by isoflurane prior to the procedure. ERG responses to light stimuli (8.0 cd·s/m^2) were recorded by RETevet (LKC Technologies, Inc.). Implicit times and amplitudes of a-waves and b-waves were reported. There was a deviation from the protocol in which ERG was not performed prior to Test Article administration (˜Day 40). The deviation had no impact on the conclusion of the study. Baseline ERG measurements are not required to determine efficacy of the Test Article. A […] ERG assessment was added to the study.
Optical coherence tomography (OCT) and fundus fluorescein angiography (FFA) were performed on Day 41 (pre-dose) and Days 56, 63 and 70 (post-dose initiation). Both eyes were dilated with 1% tropicamide. Animals were anesthetized (by ketamine/xylazine intramuscular injection) prior to the procedures.
Retinas of both eyes in each animal were scanned by OCT (Envisu R-Class, Leica/Bioptogen). Thickness of retinal mid-layers, approximately including the outer plexiform layer (OPL), the outer nuclear layer (ONL) and the photoreceptor inner segment (IS), were measured using Bioptigen InVivoVue Reader software. For each eye, four (4) digital calipers were placed randomly on a cross-section image between OPL and IS, away from optic nerve; and measurements were exported to Microsoft Excel files. An average thickness of each retina was calculated from the four (4) measurements, using Microsoft Excel.
For FFA, ˜1.5 mL/kg fluorescein (AK-FLUOR® fluorescein injection, USP, 10%, NDC 17478253-10) was injected intraperitoneally to visualize the retinal vasculature. […]

[2] = system: dextran sulfate sodium (DSS)-induced acute ulcerative colitis (UC); experiment: 7-Day DSS-induced acute ulcerative colitis model; type: in vivo, female Swiss Webster mice; details: vs PO vehicle
[3] = 17.5 μg per eye IVT at 6 and 8 weeks after STZ, Week 10, vs vehicle
[4] = 17.5 μg per eye IVT, vs vehicle
[5] = 200 mg/kg PO BID, Days 0 through 6
[6] = 200 mg/kg PO BID, Days −3 through 6

CC(C)(O)c1cc2oc(-c3ccccc3)nc2cc1N [Compound I-22]
tolerability in the retina ([1]; 17.5 μg per eye IVT): well tolerated | neutrophil infiltration (histopathology score) [1, 3]: significant reduction; also recorded: blocked | retinal thickness (histopathology score) [1, 3]: reduced retinal thickness; also recorded: statically significant decrease; also recorded: significantly reduced | severities of the retinal lesions (histopathology) ([1]; 17.5 μg per eye IVT at 6 and 8 weeks after STZ, ten weeks after STZ, vs vehicle): significantly diminished; also recorded: statistically significant reductions | retinal inflammation ([1]; 17.5 μg per eye IVT, model of DME): decreased | ERG, OCT, or FFA [1, 4]: did not show statistically significant effects | diabetes-induced retinal vascular changes [1, 4]: inhibited; also recorded: blocked | body weights, glucose levels, ERG, OCT or FFA ([1]; Group 3 vs Vehicle-treated Group 2): No statistically significant differences | Mean vascular scores ([1]; Week 8, control group 3.0, p<0.05): 2.47 | OCT mean retinal thickness ([1]; Week 9, vehicle-treated group 83.3 μm): 82.3 μm | Retinal thickness (OCT) ([1]; Weeks 9 and 10, vs vehicle): reduced at Weeks 9 and 10, however it was not statistically significant | decrease in retinal vascularity score ([1]; microscopic sections of the retinas, vs vehicle, p<0.05): 36% | ERG changes ([1]; relative to the non-diabetic control group): nor were there any ERG changes | decrease in vascular leakage ([1]; vs vehicle-treated group): did not reach statistical significance | Body weights ([2]; 200 mg/kg PO BID (Groups 5, 6, 7, 8, 9, and 10)): did not differ significantly | Colon lengths, increase in the direction of normal [2, 5]: 41% | PMN percentages in the proximal colon [2, 5]: significantly increased | distal colon edema, reduction [2, 5]: 78% | distal colon hyperplasia, reduction [2, 5]: 86% | distal colon mucosal thickness, reduction [2, 5]: 66% | full colon edema, reduction [2, 5]: 62% | proximal colon edema, reduction [2, 5]: 43% | full colon edema, reduction [2, 6]: 48% | proximal colon edema, reduction [2, 6]: 60% | proximal colon mucosal thickness, reduction [2, 6]: 58% | DAI stool consistency scores ([2]; Day 2, 200 mg/kg PO BID, Days 0 through 6): significantly reduced
